Source: the OligoGym collection
Oligonucleotides are given in HELM: sugar(base)linkage, 5' to 3'; d 2'-deoxyribose, r ribose, m 2'-O-methylribose, p phosphate. ss, as = sense and antisense strand

Target: UBE2D3
Assay: reporter assay of Huesken 2005
Conditions: siRNA
Also: test concentration or dose not given here.

Substance	normalised inhibition (eCFP-eYFP dual reporter) [%]
RNA1{r(G)p.r(A)p.r(C)p.r(A)p.r(A)p.r(U)p.r(U)p.r(C)p.r(A)p.r(U)p.r(U)p.r(U)p.r(U)p.r(C)p.r(C)p.r(U)p.r(A)p.r(C)p.r(A)p.d(T)p.d(T)}|RNA2{r(U)p.r(G)p.r(U)p.r(A)p.r(G)p.r(G)p.r(A)p.r(A)p.r(A)p.r(A)p.r(U)p.r(G)p.r(A)p.r(A)p.r(U)p.r(U)p.r(G)p.r(U)p.r(C)p.d(A)p.d(A)}$$$RNA1{StrandType:ss}|RNA2{StrandType:as}$	92.3
RNA1{r(G)p.r(A)p.r(C)p.r(U)p.r(A)p.r(C)p.r(C)p.r(C)p.r(C)p.r(U)p.r(U)p.r(C)p.r(A)p.r(A)p.r(A)p.r(C)p.r(C)p.r(A)p.r(C)p.d(T)p.d(T)}|RNA2{r(G)p.r(U)p.r(G)p.r(G)p.r(U)p.r(U)p.r(U)p.r(G)p.r(A)p.r(A)p.r(G)p.r(G)p.r(G)p.r(G)p.r(U)p.r(A)p.r(G)p.r(U)p.r(C)p.d(T)p.d(G)}$$$RNA1{StrandType:ss}|RNA2{StrandType:as}$	87.6
RNA1{r(G)p.r(A)p.r(U)p.r(C)p.r(C)p.r(A)p.r(A)p.r(A)p.r(C)p.r(C)p.r(C)p.r(A)p.r(G)p.r(A)p.r(U)p.r(G)p.r(A)p.r(C)p.r(C)p.d(T)p.d(T)}|RNA2{r(G)p.r(G)p.r(U)p.r(C)p.r(A)p.r(U)p.r(C)p.r(U)p.r(G)p.r(G)p.r(G)p.r(U)p.r(U)p.r(U)p.r(G)p.r(G)p.r(A)p.r(U)p.r(C)p.d(A)p.d(C)}$$$RNA1{StrandType:ss}|RNA2{StrandType:as}$	56.5
RNA1{r(G)p.r(A)p.r(U)p.r(G)p.r(A)p.r(U)p.r(A)p.r(U)p.r(G)p.r(U)p.r(U)p.r(U)p.r(C)p.r(A)p.r(U)p.r(U)p.r(G)p.r(G)p.r(C)p.d(T)p.d(T)}|RNA2{r(G)p.r(C)p.r(C)p.r(A)p.r(A)p.r(U)p.r(G)p.r(A)p.r(A)p.r(A)p.r(C)p.r(A)p.r(U)p.r(A)p.r(U)p.r(C)p.r(A)p.r(U)p.r(C)p.d(C)p.d(C)}$$$RNA1{StrandType:ss}|RNA2{StrandType:as}$	66.1
RNA1{r(G)p.r(A)p.r(U)p.r(U)p.r(G)p.r(C)p.r(A)p.r(C)p.r(G)p.r(G)p.r(A)p.r(U)p.r(C)p.r(U)p.r(A)p.r(U)p.r(A)p.r(A)p.r(A)p.d(T)p.d(T)}|RNA2{r(U)p.r(U)p.r(U)p.r(A)p.r(U)p.r(A)p.r(G)p.r(A)p.r(U)p.r(C)p.r(C)p.r(G)p.r(U)p.r(G)p.r(C)p.r(A)p.r(A)p.r(U)p.r(C)p.d(T)p.d(C)}$$$RNA1{StrandType:ss}|RNA2{StrandType:as}$	92.4
RNA1{r(G)p.r(C)p.r(A)p.r(A)p.r(G)p.r(C)p.r(C)p.r(A)p.r(C)p.r(A)p.r(A)p.r(U)p.r(U)p.r(A)p.r(U)p.r(G)p.r(G)p.r(G)p.r(A)p.d(T)p.d(T)}|RNA2{r(U)p.r(C)p.r(C)p.r(C)p.r(A)p.r(U)p.r(A)p.r(A)p.r(U)p.r(U)p.r(G)p.r(U)p.r(G)p.r(G)p.r(C)p.r(U)p.r(U)p.r(G)p.r(C)p.d(C)p.d(A)}$$$RNA1{StrandType:ss}|RNA2{StrandType:as}$	75.8
RNA1{r(G)p.r(C)p.r(A)p.r(C)p.r(A)p.r(A)p.r(U)p.r(G)p.r(U)p.r(U)p.r(C)p.r(U)p.r(G)p.r(C)p.r(A)p.r(G)p.r(G)p.r(U)p.r(C)p.d(T)p.d(T)}|RNA2{r(G)p.r(A)p.r(C)p.r(C)p.r(U)p.r(G)p.r(C)p.r(A)p.r(G)p.r(A)p.r(A)p.r(C)p.r(A)p.r(U)p.r(U)p.r(G)p.r(U)p.r(G)p.r(C)p.d(T)p.d(G)}$$$RNA1{StrandType:ss}|RNA2{StrandType:as}$	100
RNA1{r(G)p.r(G)p.r(C)p.r(A)p.r(A)p.r(G)p.r(C)p.r(C)p.r(A)p.r(C)p.r(A)p.r(A)p.r(U)p.r(U)p.r(A)p.r(U)p.r(G)p.r(G)p.r(G)p.d(T)p.d(T)}|RNA2{r(C)p.r(C)p.r(C)p.r(A)p.r(U)p.r(A)p.r(A)p.r(U)p.r(U)p.r(G)p.r(U)p.r(G)p.r(G)p.r(C)p.r(U)p.r(U)p.r(G)p.r(C)p.r(C)p.d(A)p.d(A)}$$$RNA1{StrandType:ss}|RNA2{StrandType:as}$	60.2
RNA1{r(G)p.r(G)p.r(G)p.r(A)p.r(U)p.r(G)p.r(A)p.r(U)p.r(A)p.r(U)p.r(G)p.r(U)p.r(U)p.r(U)p.r(C)p.r(A)p.r(U)p.r(U)p.r(G)p.d(T)p.d(T)}|RNA2{r(C)p.r(A)p.r(A)p.r(U)p.r(G)p.r(A)p.r(A)p.r(A)p.r(C)p.r(A)p.r(U)p.r(A)p.r(U)p.r(C)p.r(A)p.r(U)p.r(C)p.r(C)p.r(C)p.d(C)p.d(A)}$$$RNA1{StrandType:ss}|RNA2{StrandType:as}$	95
RNA1{r(G)p.r(G)p.r(U)p.r(C)p.r(C)p.r(A)p.r(G)p.r(U)p.r(U)p.r(G)p.r(G)p.r(G)p.r(G)p.r(A)p.r(U)p.r(G)p.r(A)p.r(U)p.r(A)p.d(T)p.d(T)}|RNA2{r(U)p.r(A)p.r(U)p.r(C)p.r(A)p.r(U)p.r(C)p.r(C)p.r(C)p.r(C)p.r(A)p.r(A)p.r(C)p.r(U)p.r(G)p.r(G)p.r(A)p.r(C)p.r(C)p.d(T)p.d(G)}$$$RNA1{StrandType:ss}|RNA2{StrandType:as}$	93.7
RNA1{r(G)p.r(G)p.r(U)p.r(C)p.r(G)p.r(C)p.r(C)p.r(U)p.r(G)p.r(C)p.r(U)p.r(U)p.r(U)p.r(A)p.r(A)p.r(C)p.r(A)p.r(A)p.r(U)p.d(T)p.d(T)}|RNA2{r(A)p.r(U)p.r(U)p.r(G)p.r(U)p.r(U)p.r(A)p.r(A)p.r(A)p.r(G)p.r(C)p.r(A)p.r(G)p.r(G)p.r(C)p.r(G)p.r(A)p.r(C)p.r(C)p.d(A)p.d(C)}$$$RNA1{StrandType:ss}|RNA2{StrandType:as}$	84.5
RNA1{r(G)p.r(U)p.r(C)p.r(C)p.r(A)p.r(G)p.r(U)p.r(U)p.r(G)p.r(G)p.r(G)p.r(G)p.r(A)p.r(U)p.r(G)p.r(A)p.r(U)p.r(A)p.r(U)p.d(T)p.d(T)}|RNA2{r(A)p.r(U)p.r(A)p.r(U)p.r(C)p.r(A)p.r(U)p.r(C)p.r(C)p.r(C)p.r(C)p.r(A)p.r(A)p.r(C)p.r(U)p.r(G)p.r(G)p.r(A)p.r(C)p.d(C)p.d(T)}$$$RNA1{StrandType:ss}|RNA2{StrandType:as}$	88.3
RNA1{r(G)p.r(U)p.r(G)p.r(G)p.r(U)p.r(C)p.r(G)p.r(C)p.r(C)p.r(U)p.r(G)p.r(C)p.r(U)p.r(U)p.r(U)p.r(A)p.r(A)p.r(C)p.r(A)p.d(T)p.d(T)}|RNA2{r(U)p.r(G)p.r(U)p.r(U)p.r(A)p.r(A)p.r(A)p.r(G)p.r(C)p.r(A)p.r(G)p.r(G)p.r(C)p.r(G)p.r(A)p.r(C)p.r(C)p.r(A)p.r(C)p.d(T)p.d(G)}$$$RNA1{StrandType:ss}|RNA2{StrandType:as}$	100
RNA1{r(G)p.r(U)p.r(U)p.r(U)p.r(C)p.r(A)p.r(U)p.r(U)p.r(G)p.r(G)p.r(C)p.r(A)p.r(A)p.r(G)p.r(C)p.r(C)p.r(A)p.r(C)p.r(A)p.d(T)p.d(T)}|RNA2{r(U)p.r(G)p.r(U)p.r(G)p.r(G)p.r(C)p.r(U)p.r(U)p.r(G)p.r(C)p.r(C)p.r(A)p.r(A)p.r(U)p.r(G)p.r(A)p.r(A)p.r(A)p.r(C)p.d(A)p.d(T)}$$$RNA1{StrandType:ss}|RNA2{StrandType:as}$	94.9
RNA1{r(U)p.r(A)p.r(A)p.r(G)p.r(A)p.r(U)p.r(C)p.r(A)p.r(C)p.r(A)p.r(G)p.r(U)p.r(G)p.r(G)p.r(U)p.r(C)p.r(G)p.r(C)p.r(C)p.d(T)p.d(T)}|RNA2{r(G)p.r(G)p.r(C)p.r(G)p.r(A)p.r(C)p.r(C)p.r(A)p.r(C)p.r(U)p.r(G)p.r(U)p.r(G)p.r(A)p.r(U)p.r(C)p.r(U)p.r(U)p.r(A)p.d(G)p.d(A)}$$$RNA1{StrandType:ss}|RNA2{StrandType:as}$	55.6
RNA1{r(U)p.r(A)p.r(A)p.r(U)p.r(G)p.r(A)p.r(C)p.r(A)p.r(G)p.r(C)p.r(C)p.r(C)p.r(A)p.r(U)p.r(A)p.r(U)p.r(C)p.r(A)p.r(A)p.d(T)p.d(T)}|RNA2{r(U)p.r(U)p.r(G)p.r(A)p.r(U)p.r(A)p.r(U)p.r(G)p.r(G)p.r(G)p.r(C)p.r(U)p.r(G)p.r(U)p.r(C)p.r(A)p.r(U)p.r(U)p.r(A)p.d(G)p.d(G)}$$$RNA1{StrandType:ss}|RNA2{StrandType:as}$	97.7
RNA1{r(U)p.r(A)p.r(G)p.r(U)p.r(G)p.r(C)p.r(C)p.r(A)p.r(G)p.r(A)p.r(G)p.r(A)p.r(U)p.r(U)p.r(G)p.r(C)p.r(A)p.r(C)p.r(G)p.d(T)p.d(T)}|RNA2{r(C)p.r(G)p.r(U)p.r(G)p.r(C)p.r(A)p.r(A)p.r(U)p.r(C)p.r(U)p.r(C)p.r(U)p.r(G)p.r(G)p.r(C)p.r(A)p.r(C)p.r(U)p.r(A)p.d(G)p.d(G)}$$$RNA1{StrandType:ss}|RNA2{StrandType:as}$	62.4
RNA1{r(U)p.r(A)p.r(U)p.r(C)p.r(A)p.r(A)p.r(G)p.r(G)p.r(C)p.r(G)p.r(G)p.r(U)p.r(G)p.r(U)p.r(A)p.r(U)p.r(U)p.r(C)p.r(U)p.d(T)p.d(T)}|RNA2{r(A)p.r(G)p.r(A)p.r(A)p.r(U)p.r(A)p.r(C)p.r(A)p.r(C)p.r(C)p.r(G)p.r(C)p.r(C)p.r(U)p.r(U)p.r(G)p.r(A)p.r(U)p.r(A)p.d(T)p.d(G)}$$$RNA1{StrandType:ss}|RNA2{StrandType:as}$	99.5
RNA1{r(U)p.r(A)p.r(U)p.r(G)p.r(G)p.r(G)p.r(A)p.r(C)p.r(C)p.r(U)p.r(A)p.r(A)p.r(U)p.r(G)p.r(A)p.r(C)p.r(A)p.r(G)p.r(C)p.d(T)p.d(T)}|RNA2{r(G)p.r(C)p.r(U)p.r(G)p.r(U)p.r(C)p.r(A)p.r(U)p.r(U)p.r(A)p.r(G)p.r(G)p.r(U)p.r(C)p.r(C)p.r(C)p.r(A)p.r(U)p.r(A)p.d(A)p.d(T)}$$$RNA1{StrandType:ss}|RNA2{StrandType:as}$	44.4
RNA1{r(U)p.r(A)p.r(U)p.r(G)p.r(U)p.r(U)p.r(U)p.r(C)p.r(A)p.r(U)p.r(U)p.r(G)p.r(G)p.r(C)p.r(A)p.r(A)p.r(G)p.r(C)p.r(C)p.d(T)p.d(T)}|RNA2{r(G)p.r(G)p.r(C)p.r(U)p.r(U)p.r(G)p.r(C)p.r(C)p.r(A)p.r(A)p.r(U)p.r(G)p.r(A)p.r(A)p.r(A)p.r(C)p.r(A)p.r(U)p.r(A)p.d(T)p.d(C)}$$$RNA1{StrandType:ss}|RNA2{StrandType:as}$	44.7
